Results on 16 molecules are retold here after patent US20240368158A1, “KINASE MODULATORS, COMPOSITIONS COMPRISING THE KINASE MODULATOR, AND METHODS OF USING THE SAME” (BIOFRONT LTD, priority 2021, published 2024).

One may read the IC50 as the concentration that gives 50% inhibition. A lower IC50 goes with greater potency.

Assay [1] concerns the target T1, HPK1 (Homo sapiens, UniProt Q92918).
T1 construct: purchased Signal Chem M23-11G-10
T1 sequence (Q92918 1-346 limits assumed): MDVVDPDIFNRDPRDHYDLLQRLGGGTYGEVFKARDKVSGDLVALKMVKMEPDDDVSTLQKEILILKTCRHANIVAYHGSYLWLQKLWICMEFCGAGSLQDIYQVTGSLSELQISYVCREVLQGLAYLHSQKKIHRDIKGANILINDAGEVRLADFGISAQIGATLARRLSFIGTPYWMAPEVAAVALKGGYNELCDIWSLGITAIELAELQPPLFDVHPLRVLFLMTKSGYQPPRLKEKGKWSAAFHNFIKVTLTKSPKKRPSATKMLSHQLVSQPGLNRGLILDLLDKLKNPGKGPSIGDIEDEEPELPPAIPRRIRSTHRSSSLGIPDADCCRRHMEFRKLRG
Briefly: HPK1 enzyme inhibition assay (ADP-Glo). Type of assay: biochemical. The settings on record: MBP substrate, ATP. As to the method: The compound was dissolved in 100% DMSO at the concentration of 10 mM. The HPK1 protein was purchased from Signal Chem (M23-11G-10). 2.5 μL per well of 2×HPK1 protein was added to assay plate containing the test compound, centrifuged at 1500 rpm for 1 minute, and then incubated at 25° C. for 60 minutes. MBP protein was purchased from Signal Chem (M42-51N) and ATP was purchased from Promega (V9102). The two were added 2.5 μL per well mixture of 2×MBP (0.2 ug/ul) and ATP (20 μM), centrifuged at 1500 rpm for 1 minute, then incubated at 25° C. for 60 minutes. Then added 5 μL of ADP-Glo from Promega (V9102) to the assay plate and depleted the unconsumed ATP for 60 minutes. Then centrifuged at 1500 rpm for 1 minute and incubated at 25° C. for 60 minutes. Finally, 10 μL of the kinase assay reagent from Promega (V9102) was added to the assay plate to convert ADP to ATP, centrifuged at 1500 rpm for 1 minute, incubate at 25° C. for 40 minutes. After 40 minutes incubation, the […] was determined. Based on the results, the IC50 value of the compound was calculated.
(ADP-Glo first removes unused ATP, then detects ADP through luciferase.)

Assay [2] relates to HPK1 p-SLP-76 in Jurkat cells. Put plainly: HPK1 p-SLP-76 inhibition assay in Jurkat cells (HTRF). Type of assay: cell-based. The conditions noted are these: Homo sapiens, 4 h compound, anti-CD3 stimulation 20 min. The protocol: Before compound treatment, Jurkat cells were starved in PRMI-1640 medium supplemented with 0.5% FBS overnight. The cell density was adjusted to 1*10^7 cells/mL in assay medium (RPMI-1640 no phenol red with 0.5% FBS) and 16 uL cell suspension was transferred per well to a 384-well plate (Corning #3765). […] of test compound was prepared in assay medium and 4 uL was added per well to the 384-well plate. The plate was then incubated at 37° C., 5% CO2 for 4 h. Jurkat cells in 384-well plate were stimulated with anti-CD3 (BD Biosciences #555329, final conc. is 10 ug/mL) for 20 min at 37° C., 5% CO2 by adding 4 uL 6× antibody solution per well. Phospho-SLP76 HTRF kit was purchased from Cisbio (63ADK076PEH). 8 uL 4× Lysis Buffer was added to 384-well plate after anti-CD3 stimulation. The plate was centrifuged at 1,000 rpm for 1 min, shaken at 250 rpm for 60 min and centrifuged again at 1,000 rpm for 5 min. Afterwards the cell lysates were transferred to the assay plate (Greiner #784075) with 16 uL per well. 4 uL detection antibody mix per well prepared in Detection Buffer was added to the assay plate, followed by centrifugation at 1,000 rpm for 1 min and incubation at 25° C. overnight. The fluorescence emission at two different wavelengths (665 nm and 620 nm) was read by an HTRF compatible microplate reader and the IC50 value of the compound was calculated.

Structures are written as SMILES.

Regarding `CCc1c[nH]c2ncc(-c3cc(N4CCNCC4=O)ccc3CN(C)C)cc12` [Example 40, 1-(4-((dimethylamino)methyl)-3-(3-ethyl-1H-pyrrolo[2,3-b]pyridin-5-yl)phenyl)piperazin-2-one], the IC50 in assay [1] was over 1000 nM; in assay [2], over 10000 nM.
Taken in the same sequence, the figures for `CCc1c[nH]c2ncc(-c3cc(N4CCNCC4=O)ccc3CNC)cc12` [Example 41, 1-(3-(3-ethyl-1H-pyrrolo[2,3-b]pyridin-5-yl)-4-((methylamino)methyl)phenyl)piperazin-2-one] were over 1000 nM and over 10000 nM.
Taken in the same sequence, the figures for `CCc1c[nH]c2ncc(-c3cccc(N4CCN(C(=O)[C@@H](N)C(C)C)CC4=O)c3)c(Cl)c12` [Example 42, 4-(L-valyl)-1-(3-(4-chloro-3-ethyl-1H-pyrrolo[2,3-b]pyridin-5-yl)phenyl)piperazin-2-one] were 10 to 100 nM and 3000 to 10000 nM.
Turning to `CCc1c[nH]c2ncc(-c3cccc(N4CCN(C(=O)CNc5ccc(C[C@@H](N)C(=O)O)cc5)CC4=O)c3)c(Cl)c12` [Example 46, (R)-2-amino-3-(4-((2-(4-(3-(4-chloro-3-ethyl-1H-pyrrolo[2,3-b]pyridin-5-yl)phenyl)-3-oxopiperazin-1-yl)-2-oxoethyl)amino)phenyl)propanoic acid], the IC50 in assay [1] is at most 10 nM; in assay [2] it was 3000 to 10000 nM.
With `CCc1c[nH]c2ncc(-c3cccc(N4CCN(C(=O)CC[C@H](NC(=O)c5ccc(NCc6cnc7nc(N)[nH]c(=O)c7n6)cc5)C(=O)O)CC4=O)c3)c(Cl)c12` [Example 47, (S)-2-(4-(((2-amino-4-oxo-3,4-dihydropteridin-6-yl)methyl)amino)benzamido)-5-(4-(3-(4-chloro-3-ethyl-1H-pyrrolo[2,3-b]pyridin-5-yl)phenyl)-3-oxopiperazin-1-yl)-5-oxopentanoic acid], the results for the IC50 in assay [1] and in assay [2] were 10 to 100 nM and over 10000 nM, respectively.
In the same order, the values of `CCc1c[nH]c2ncc(-c3cccc(N4CCN(C(=O)CO[C@@H]5O[C@H](CO)[C@@H](O)[C@H](O)[C@H]5O)CC4=O)c3)c(Cl)c12` [Example 49, 1-(3-(4-chloro-3-ethyl-1H-pyrrolo[2,3-b]pyridin-5-yl)phenyl)-4-(2-(((2R,3R,4S,5S,6R)-3,4,5-trihydroxy-6-(hydroxymethyl)tetrahydro-2H-pyran-2-yl)oxy)acetyl)piperazin-2-one] are at most 10 nM and over 10000 nM.
Consider `CS(=O)(=O)N1CCN(c2cccc(-c3cnc4[nH]cc(CC(F)F)c4c3Cl)c2)C(=O)C1` [Example 51, 1-(3-(4-chloro-3-(2,2-difluoroethyl)-1H-pyrrolo[2,3-b]pyridin-5-yl)phenyl)-4-(methylsulfonyl)piperazin-2-one], for which the IC50 is at most 10 nM in assay [1] and 300 to 3000 nM in assay [2].
Taken in the same sequence, the figures for `CCc1c[nH]c2ncc(-c3cccc(N4CCN(S(C)(=O)=O)CC4=O)c3)c(Cl)c12` [Example 52, 1-(3-(4-chloro-3-ethyl-1H-pyrrolo[2,3-b]pyridin-5-yl)phenyl)-4-(methylsulfonyl) piperazin-2-one] were at most 10 nM and 300 to 3000 nM.
Taken in the same sequence, the figures for `COCCS(=O)(=O)N1CCN(c2cccc(-c3cnc4[nH]cc(C5CC5)c4c3Cl)c2)C(=O)C1` [Example 54, 1-(3-(4-chloro-3-cyclopropyl-1H-pyrrolo[2,3-b]pyridin-5-yl)phenyl)-4-((2-methoxyethyl)sulfonyl)piperazin-2-one] were at most 10 nM and 300 to 3000 nM.
In the same order, the values of `O=C1CN(S(=O)(=O)CCCN2CCOCC2)CCN1c1cccc(-c2cnc3[nH]cc(C4CC4)c3c2Cl)c1` [Example 55, 1-(3-(4-chloro-3-cyclopropyl-1H-pyrrolo[2,3-b]pyridin-5-yl)phenyl)-4-((3-morpholinopropyl)sulfonyl)piperazin-2-one] are at most 10 nM and 300 to 3000 nM.
For the molecule `CN(C)CCCS(=O)(=O)N1CCN(c2cccc(-c3cnc4[nH]cc(C5CC5)c4c3Cl)c2)C(=O)C1` [Example 56, 1-(3-(4-chloro-3-cyclopropyl-1H-pyrrolo[2,3-b]pyridin-5-yl)phenyl)-4-((3-(dimethylamino)propyl)sulfonyl)piperazin-2-one], the IC50 in assay [1] was at most 10 nM; in assay [2], 300 to 3000 nM.
For the molecule `CC1CN(CCCS(=O)(=O)N2CCN(c3cccc(-c4cnc5[nH]cc(C6CC6)c5c4Cl)c3)C(=O)C2)C1` [Example 57, 1-(3-(4-chloro-3-cyclopropyl-1H-pyrrolo[2,3-b]pyridin-5-yl)phenyl)-4-((3-(3-methylazetidin-1-yl)propyl)sulfonyl)piperazin-2-one], the figures for the IC50 in assay [1] and in assay [2] were at most 10 nM and 300 to 3000 nM, respectively.
On to `O=C1CN(S(=O)(=O)CCCN2CC(F)C2)CCN1c1cccc(-c2cnc3[nH]cc(C4CC4)c3c2Cl)c1` [Example 58, 1-(3-(4-chloro-3-cyclopropyl-1H-pyrrolo[2,3-b]pyridin-5-yl)phenyl)-4-((3-(3-fluoroazetidin-1-yl)propyl)sulfonyl)piperazin-2-one], for which the values for the IC50 in assay [1] and in assay [2] were at most 10 nM and 300 to 3000 nM, respectively.
For the molecule `O=C1CN(S(=O)(=O)CCCN2CCOCC2)CCN1c1cccc(-c2cnc3[nH]cc(CC(F)F)c3c2Cl)c1` [Example 59, 1-(3-(4-chloro-3-(2,2-difluoroethyl)-1H-pyrrolo[2,3-b]pyridin-5-yl)phenyl)-4-((3-morpholinopropyl)sulfonyl)piperazin-2-one], the values for the IC50 in assay [1] and in assay [2] were at most 10 nM and 300 to 3000 nM, respectively.
In the same order, the values of `CS(=O)(=O)N1CCN(c2cccc(-c3cnc4[nH]cc(CC(F)F)c4c3Cl)n2)C(=O)C1` [Example 61, 1-(6-(4-chloro-3-(2,2-difluoroethyl)-1H-pyrrolo[2,3-b]pyridin-5-yl)pyridin-2-yl)-4-(methylsulfonyl)piperazin-2-one] are at most 10 nM and 300 to 3000 nM.
Take `COCCS(=O)(=O)N1CCN(c2cccc(-c3cnc4[nH]cc(CC(F)F)c4c3Cl)c2)C(=O)C1` [Example 62, 1-(3-(4-chloro-3-(2,2-difluoroethyl)-1H-pyrrolo[2,3-b]pyridin-5-yl)phenyl)-4-((2-methoxyethyl)sulfonyl)piperazin-2-one]: the 50% inhibitory concentration (IC50) in assay [1] is at most 10 nM; in assay [2], 300 to 3000 nM.
